In ChEMBL document CHEMBL1140879, “Synthesis of isothiazol-3-one derivatives as inhibitors of histone acetyltransferases (HATs)” (Bioorg Med Chem, 2009):
pIC50: −log10 of the molar value.

How the values were obtained:
[1] = target: Histone acetyltransferase KAT2B (Homo sapiens, UniProt Q92831); assay: Inhibition of GST-fused recombinant HAT PCAF expressed in Escherichia coli by filter assay
[2] = target: T1, Histone acetyltransferase p300 (Homo sapiens, UniProt Q09472); assay: Inhibition of GST-fused recombinant HAT p300 expressed in Escherichia coli by filter assay
[3] = target: T1, Histone acetyltransferase p300; assay: Inhibition of HAT p300
[4] = target: T1, Histone acetyltransferase p300; assay: Inhibition of recombinant His-tagged HAT p300 expressed in Sf21-Baculovirus system

T1 sequence (Q09472 whole entry, the tested form may be a part): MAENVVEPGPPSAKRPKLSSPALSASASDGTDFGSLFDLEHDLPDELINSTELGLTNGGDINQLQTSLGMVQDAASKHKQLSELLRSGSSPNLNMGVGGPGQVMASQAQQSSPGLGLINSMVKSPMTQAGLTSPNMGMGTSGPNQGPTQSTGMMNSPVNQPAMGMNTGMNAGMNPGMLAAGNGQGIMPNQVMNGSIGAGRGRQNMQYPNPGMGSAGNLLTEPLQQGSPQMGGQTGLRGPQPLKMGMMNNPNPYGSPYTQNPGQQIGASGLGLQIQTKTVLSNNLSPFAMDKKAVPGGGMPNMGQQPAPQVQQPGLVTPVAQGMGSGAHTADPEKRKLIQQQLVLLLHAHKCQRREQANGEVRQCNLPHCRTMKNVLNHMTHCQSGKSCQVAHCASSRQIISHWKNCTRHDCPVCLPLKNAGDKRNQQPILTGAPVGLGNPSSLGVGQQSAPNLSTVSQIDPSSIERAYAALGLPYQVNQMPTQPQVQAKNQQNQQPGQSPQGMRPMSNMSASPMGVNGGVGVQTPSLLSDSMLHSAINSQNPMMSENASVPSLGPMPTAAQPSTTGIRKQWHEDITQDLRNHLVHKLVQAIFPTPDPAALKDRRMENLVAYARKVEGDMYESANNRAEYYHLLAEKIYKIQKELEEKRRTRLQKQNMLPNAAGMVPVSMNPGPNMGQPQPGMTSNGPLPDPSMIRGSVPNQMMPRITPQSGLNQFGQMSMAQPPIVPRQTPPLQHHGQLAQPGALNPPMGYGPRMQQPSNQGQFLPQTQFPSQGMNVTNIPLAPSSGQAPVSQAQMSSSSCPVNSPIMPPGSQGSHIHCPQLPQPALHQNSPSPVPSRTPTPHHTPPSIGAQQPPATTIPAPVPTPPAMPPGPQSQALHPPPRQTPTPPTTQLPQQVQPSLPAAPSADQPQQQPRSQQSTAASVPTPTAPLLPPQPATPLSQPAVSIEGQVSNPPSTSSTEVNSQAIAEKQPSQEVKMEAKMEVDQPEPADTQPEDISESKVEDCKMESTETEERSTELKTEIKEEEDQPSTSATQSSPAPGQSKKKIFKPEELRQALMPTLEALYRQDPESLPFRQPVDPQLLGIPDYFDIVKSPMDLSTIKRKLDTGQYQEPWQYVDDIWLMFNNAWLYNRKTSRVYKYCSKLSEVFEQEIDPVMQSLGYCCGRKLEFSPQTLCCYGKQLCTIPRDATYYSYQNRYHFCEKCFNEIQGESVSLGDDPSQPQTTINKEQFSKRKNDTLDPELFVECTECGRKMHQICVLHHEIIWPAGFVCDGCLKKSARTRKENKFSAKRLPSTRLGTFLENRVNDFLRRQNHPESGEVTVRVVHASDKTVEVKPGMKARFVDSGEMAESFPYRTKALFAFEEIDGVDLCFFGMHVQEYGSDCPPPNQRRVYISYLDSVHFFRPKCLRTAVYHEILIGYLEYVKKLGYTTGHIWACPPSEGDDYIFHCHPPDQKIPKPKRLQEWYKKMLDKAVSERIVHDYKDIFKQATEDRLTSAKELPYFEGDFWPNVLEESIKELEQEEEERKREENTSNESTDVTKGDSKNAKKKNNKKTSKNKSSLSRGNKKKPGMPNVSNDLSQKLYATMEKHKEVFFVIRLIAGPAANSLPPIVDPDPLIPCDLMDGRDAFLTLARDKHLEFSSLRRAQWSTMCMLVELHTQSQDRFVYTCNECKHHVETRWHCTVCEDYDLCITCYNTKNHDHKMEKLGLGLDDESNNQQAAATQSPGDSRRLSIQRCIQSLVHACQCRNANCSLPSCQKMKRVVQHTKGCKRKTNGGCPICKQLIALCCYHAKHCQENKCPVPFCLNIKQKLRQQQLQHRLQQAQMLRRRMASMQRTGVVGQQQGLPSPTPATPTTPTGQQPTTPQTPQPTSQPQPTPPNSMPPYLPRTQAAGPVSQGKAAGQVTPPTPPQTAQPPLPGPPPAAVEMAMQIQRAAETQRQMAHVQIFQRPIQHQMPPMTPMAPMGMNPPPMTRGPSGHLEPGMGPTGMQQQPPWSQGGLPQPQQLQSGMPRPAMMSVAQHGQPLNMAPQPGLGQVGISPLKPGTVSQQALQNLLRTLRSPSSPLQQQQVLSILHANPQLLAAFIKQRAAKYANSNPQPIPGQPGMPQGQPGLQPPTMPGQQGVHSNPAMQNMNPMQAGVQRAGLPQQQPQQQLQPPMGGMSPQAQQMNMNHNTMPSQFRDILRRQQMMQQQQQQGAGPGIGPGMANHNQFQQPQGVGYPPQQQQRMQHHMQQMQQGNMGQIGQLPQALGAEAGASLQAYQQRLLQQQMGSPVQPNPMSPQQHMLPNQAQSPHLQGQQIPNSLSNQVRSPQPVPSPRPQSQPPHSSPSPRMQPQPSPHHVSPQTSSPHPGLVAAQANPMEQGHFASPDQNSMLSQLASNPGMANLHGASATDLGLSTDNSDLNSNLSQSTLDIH
Sequence of Histone acetyltransferase KAT2B (Q92831 whole entry, the tested form may be a part): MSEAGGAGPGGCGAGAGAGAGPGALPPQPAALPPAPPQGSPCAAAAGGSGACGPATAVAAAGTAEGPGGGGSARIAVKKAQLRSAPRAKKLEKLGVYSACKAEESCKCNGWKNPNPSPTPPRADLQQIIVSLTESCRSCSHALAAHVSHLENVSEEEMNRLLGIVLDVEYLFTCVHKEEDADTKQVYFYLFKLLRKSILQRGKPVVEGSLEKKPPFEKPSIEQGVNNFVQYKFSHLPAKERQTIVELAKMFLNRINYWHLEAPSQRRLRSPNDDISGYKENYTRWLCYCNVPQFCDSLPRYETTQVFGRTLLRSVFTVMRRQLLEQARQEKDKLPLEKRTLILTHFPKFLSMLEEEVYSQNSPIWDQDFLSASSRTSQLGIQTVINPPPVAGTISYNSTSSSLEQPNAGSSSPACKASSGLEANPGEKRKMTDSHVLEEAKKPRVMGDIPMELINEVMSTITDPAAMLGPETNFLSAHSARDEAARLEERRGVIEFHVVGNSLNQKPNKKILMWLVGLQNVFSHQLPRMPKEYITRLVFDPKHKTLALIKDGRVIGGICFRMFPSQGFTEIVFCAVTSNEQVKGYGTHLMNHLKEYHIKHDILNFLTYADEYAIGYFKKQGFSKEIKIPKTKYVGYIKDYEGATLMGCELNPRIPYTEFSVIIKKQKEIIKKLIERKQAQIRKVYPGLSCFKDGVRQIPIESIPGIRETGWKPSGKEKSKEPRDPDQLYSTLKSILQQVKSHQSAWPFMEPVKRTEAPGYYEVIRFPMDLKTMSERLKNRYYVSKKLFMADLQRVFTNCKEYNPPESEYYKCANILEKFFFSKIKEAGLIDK

Row | Structure (SMILES) | pIC50 [1] | also measured
1 | [N-]=[N+]=NCc1cc(=O)n(-c2ccccc2)s1 | 4.24 | –
2 | COc1sn(-c2ccccc2)c(=O)c1C | < 3.70 | –
3 | O=c1ccsn1-c1cc(F)c(F)c(F)c1 | 5.51 | –
4 | O=c1cc(CO)sn1-c1ccccc1 | 3.96 | –
5 | CN(C)c1ccc(-n2sccc2=O)cc1 | 5.27 | –
6 | [N-]=[N+]=NCc1csn(-c2ccccc2)c1=O | 4.37 | –
7 | Cc1csn(-c2ccccc2)c1=O | 4.49 | –
8 | CC(=O)OCc1cc(=O)n(-c2ccccc2)s1 | 3.79 | –
9 | O=C(Nc1ccccc1)OCc1cc(=O)n(-c2ccccc2)s1 | < 3.70 | –
10 | O=c1ccsn1-c1ccccc1 | 4.55 | pIC50 [2]: 4.64
11 | O=c1cc(-c2ccccc2)sn1-c1ccccc1 | < 3.70 | –
12 | COCc1csn(-c2ccccc2)c1=O | 3.99 | –
13 | C=C(C)[C@@H](CC=C(C)C)C[C@@]12C[C@@H](CC=C(C)C)C(C)(C)[C@@](CC=C(C)C)(C(=O)C(C(=O)c3ccc(O)c(O)c3)=C1O)C2=O [GARCINOL] | – | pIC50 [3]: 5.22
14 | O=c1ccsn1-c1ccccn1 | 4.72 | pIC50 [2]: 4.55
15 | O=c1ccsn1-c1cccc(Cl)c1F | 5.27 | –
16 | O=c1ccsn1-c1cccnc1 | 5.19 | pIC50 [2]: 4.84
17 | O=c1ccsn1-c1ccncc1 | 5.82 | pIC50 [2]: 5.52
18 | C=CC/C=C\C/C=C\CCCCCCCc1cccc(O)c1C(=O)O [ANACARDIC ACID] | – | pIC50 [4]: 5.30
19 | O=c1c2cccnc2sn1-c1ccccc1 | 5.21 | –
20 | O=c1ccsn1-c1ccc(N2CCOCC2)cc1 | 5.12 | pIC50 [2]: 5.00
21 | Cc1cc(=O)n(-c2ccccc2)s1 | < 3.70 | –
22 | Cc1c(Cl)sn(-c2ccccc2)c1=O | 4.70 | –
